Source: US8530667B2, “Herbicides” (Syngenta Limited, priority 2007, dated 2013)

How the values were obtained:
Format in all cases: in vivo
[1] = system: Amaranthus retoflexus (AMARE); assay: Example B pre-emergence herbicidal activity, glasshouse pot test; details: Amaranthus retroflexus, 312 h, Rate 250 g/ha, evaluated after 13 days, read-out: Pre-Emergence Activity AMARE (100=total damage to plant; 0=no damage to plant)
Method: (§1) Seeds of a variety of test species were sown in standard soil in pots. After cultivation for one day (pre-emergence) or after 8 days cultivation (post-emergence) under controlled conditions in a glasshouse (at 24/16° C., day/night; 14 hours light; 65% humidity), the plants were sprayed with an aqueous spray solution derived from the formulation of the technical active ingredient in acetone/water (50:50) solution containing 0.5% Tween 20 (polyoxyethelyene sorbitan monolaurate, CAS RN 9005-64-5). The test plants were then grown in a glasshouse under controlled conditions in a glasshouse (at 24/16° C., day/night; 14 hours light; 65% humidity) and watered twice daily. After 13 days for pre and post-emergence, the test was evaluated (100=total damage to plant; 0=no damage to plant). Alopecurus myosuroides (ALOMY), Avena fatua (AVEFA), Setaria faberi (SETFA), Echinochloa crus-galli (ECHCG) and Amaranthus retoflexus (AMARE)

Setaria faberi (SETFA) [2] = assay: as above; details: 312 h, Rate 250 g/ha, evaluated after 13 days, read-out: Pre-Emergence Activity SETFA (100=total damage to plant; 0=no damage to plant)
Method: as §1

[3] = system: Alopecurus myosuroides (ALOMY); assay: as above; details: 312 h, Rate 250 g/ha, evaluated after 13 days, read-out: Pre-Emergence Activity ALOMY (100=total damage to plant; 0=no damage to plant)
Method: as §1

[4] = system: Echinochloa crus-galli (ECHCG); assay: as above; details: 312 h, Rate 250 g/ha, evaluated after 13 days, read-out: Pre-Emergence Activity ECHCG (100=total damage to plant; 0=no damage to plant)
Method: as §1

Avena fatua (AVEFA) [5] = assay: as above; details: 312 h, Rate 250 g/ha, evaluated after 13 days, read-out: Pre-Emergence Activity AVEFA (100=total damage to plant; 0=no damage to plant)
Method: as §1

[6] = system: Amaranthus retoflexus (AMARE); assay: Example B post-emergence herbicidal activity, glasshouse pot test; details: Amaranthus retroflexus, 312 h, rate 250 g/ha, evaluated after 13 days, read-out: Post-emergence activity AMARE (100=total damage to plant; 0=no damage to plant)
Method: as §1

Setaria faberi (SETFA) [7] = assay: as above; details: 312 h, rate 250 g/ha, evaluated after 13 days, read-out: Post-emergence activity SETFA (100=total damage to plant; 0=no damage to plant)
Method: as §1

[8] = system: Alopecurus myosuroides (ALOMY); assay: as above; details: 312 h, rate 250 g/ha, evaluated after 13 days, read-out: Post-emergence activity ALOMY (100=total damage to plant; 0=no damage to plant)
Method: as §1

[9] = system: Echinochloa crus-galli (ECHCG); assay: as above; details: 312 h, rate 250 g/ha, evaluated after 13 days, read-out: Post-emergence activity ECHCG (100=total damage to plant; 0=no damage to plant)
Method: as §1

Avena fatua (AVEFA) [10] = assay: as above; details: 312 h, rate 250 g/ha, evaluated after 13 days, read-out: Post-emergence activity AVEFA (100=total damage to plant; 0=no damage to plant)
Method: as §1

Question: Cc1sc(-c2ccc(OC(F)F)cc2Cl)nc1C1=C(OC(=O)C(C)(C)C)[C@@H]2[C@H](C1=O)[C@H]1CC[C@@H]2O1 (racemic) [Compound P9] was tested. Which pest or weed control at 250 g/ha [1] did it give?
Answer: 0%

Question: What about the pest or weed control at 250 g/ha (Setaria faberi (SETFA) [2]) of the same compound?
Answer: 90%

Question: What about the pest or weed control at 250 g/ha [3] of the same compound?
Answer: 70%

Question: And the pest or weed control at 250 g/ha [4]?
Answer: 90%

Question: And the pest or weed control at 250 g/ha (Avena fatua (AVEFA) [5])?
Answer: 50%

Question: And the pest or weed control at 250 g/ha [6]?
Answer: 0%

Question: What about the pest or weed control at 250 g/ha (Setaria faberi (SETFA) [7]) of the same compound?
Answer: 100%

Question: And the pest or weed control at 250 g/ha [8]?
Answer: 100%

Question: What about the pest or weed control at 250 g/ha [9] of the same compound?
Answer: 100%

Question: What about the pest or weed control at 250 g/ha (Avena fatua (AVEFA) [10]) of the same compound?
Answer: 90%

Question: What does the source list for Cc1sc(-c2ccc(C(C)C)cc2)nc1C1C(=O)[C@@H]2[C@H](C1=O)[C@H]1CC[C@@H]2O1 (some centres unmarked) [Compound T51]?
Answer: pest or weed control at 250 g/ha [1]: 0%; pest or weed control at 250 g/ha (Setaria faberi (SETFA) [2]): 100%; pest or weed control at 250 g/ha [3]: 80%; pest or weed control at 250 g/ha [4]: 100%; pest or weed control at 250 g/ha (Avena fatua (AVEFA) [5]): 90%; pest or weed control at 250 g/ha [6]: 0%; pest or weed control at 250 g/ha (Setaria faberi (SETFA) [7]): 90%; pest or weed control at 250 g/ha [8]: 90%; pest or weed control at 250 g/ha [9]: 100%; pest or weed control at 250 g/ha (Avena fatua (AVEFA) [10]): 80%

Question: CC(=O)OC1=C(c2nc(-c3ccc(Br)cn3)sc2C)C(=O)[C@H]2[C@@H]1[C@@H]1CC[C@H]2O1 (racemic) [Compound P5] was tested. Which pest or weed control at 250 g/ha [1] did it give?
Answer: 0%

Question: What about the pest or weed control at 250 g/ha (Setaria faberi (SETFA) [2]) of the same compound?
Answer: 100%

Question: What about the pest or weed control at 250 g/ha [3] of the same compound?
Answer: 50%

Question: What about the pest or weed control at 250 g/ha [4] of the same compound?
Answer: 90%

Question: And the pest or weed control at 250 g/ha (Avena fatua (AVEFA) [5])?
Answer: 70%

Question: What about the pest or weed control at 250 g/ha [6] of the same compound?
Answer: 0%

Question: What about the pest or weed control at 250 g/ha (Setaria faberi (SETFA) [7]) of the same compound?
Answer: 100%

Question: And the pest or weed control at 250 g/ha [8]?
Answer: 90%

Question: What about the pest or weed control at 250 g/ha [9] of the same compound?
Answer: 100%

Question: And the pest or weed control at 250 g/ha (Avena fatua (AVEFA) [10])?
Answer: 90%

Question: For Cc1sc(-c2ccc(OC(F)F)cc2Cl)nc1C1C(=O)[C@@H]2[C@H](C1=O)[C@H]1CC[C@@H]2O1 (some centres unmarked) [Compound T52], which pest or weed control at 250 g/ha [1] is on record?
Answer: 0%

Question: What about the pest or weed control at 250 g/ha (Setaria faberi (SETFA) [2]) of the same compound?
Answer: 100%

Question: What about the pest or weed control at 250 g/ha [3] of the same compound?
Answer: 70%

Question: What about the pest or weed control at 250 g/ha [4] of the same compound?
Answer: 100%

Question: And the pest or weed control at 250 g/ha (Avena fatua (AVEFA) [5])?
Answer: 90%

Question: What about the pest or weed control at 250 g/ha [6] of the same compound?
Answer: 0%

Question: What about the pest or weed control at 250 g/ha (Setaria faberi (SETFA) [7]) of the same compound?
Answer: 100%

Question: And the pest or weed control at 250 g/ha [8]?
Answer: 100%

Question: What about the pest or weed control at 250 g/ha [9] of the same compound?
Answer: 100%

Question: What about the pest or weed control at 250 g/ha (Avena fatua (AVEFA) [10]) of the same compound?
Answer: 100%

Question: With Cc1sc(-c2ccc(OC(F)F)cc2)nc1C1C(=O)[C@@H]2[C@H](C1=O)[C@H]1CC[C@@H]2O1 (some centres unmarked) [Compound T41] as the compound, how does the pest or weed control at 250 g/ha [1] read?
Answer: 0%

Question: What about the pest or weed control at 250 g/ha (Setaria faberi (SETFA) [2]) of the same compound?
Answer: 100%

Question: And the pest or weed control at 250 g/ha [3]?
Answer: 100%

Question: And the pest or weed control at 250 g/ha [4]?
Answer: 100%

Question: What about the pest or weed control at 250 g/ha (Avena fatua (AVEFA) [5]) of the same compound?
Answer: 30%

Question: What about the pest or weed control at 250 g/ha [6] of the same compound?
Answer: 0%

Question: And the pest or weed control at 250 g/ha (Setaria faberi (SETFA) [7])?
Answer: 100%

Question: What about the pest or weed control at 250 g/ha [8] of the same compound?
Answer: 100%

Question: And the pest or weed control at 250 g/ha [9]?
Answer: 100%

Question: And the pest or weed control at 250 g/ha (Avena fatua (AVEFA) [10])?
Answer: 90%

Question: CCc1sc(-c2ccc(SC)cc2)nc1C1C(=O)[C@@H]2[C@H](C1=O)[C@H]1CC[C@@H]2O1 (some centres unmarked) [Compound T50] was tested. Which pest or weed control at 250 g/ha [1] did it give?
Answer: 0%

Question: What about the pest or weed control at 250 g/ha (Setaria faberi (SETFA) [2]) of the same compound?
Answer: 90%

Question: And the pest or weed control at 250 g/ha [3]?
Answer: 40%

Question: And the pest or weed control at 250 g/ha [4]?
Answer: 90%

Question: What about the pest or weed control at 250 g/ha (Avena fatua (AVEFA) [5]) of the same compound?
Answer: 0%

Question: What about the pest or weed control at 250 g/ha [6] of the same compound?
Answer: 0%

Question: What about the pest or weed control at 250 g/ha (Setaria faberi (SETFA) [7]) of the same compound?
Answer: 100%

Question: And the pest or weed control at 250 g/ha [8]?
Answer: 90%

Question: And the pest or weed control at 250 g/ha [9]?
Answer: 100%

Question: And the pest or weed control at 250 g/ha (Avena fatua (AVEFA) [10])?
Answer: 90%

Question: Which pest or weed control at 250 g/ha [1] does the source give for CCc1sc(COc2ccc(Cl)cc2)nc1C1C(=O)[C@@H]2[C@H](C1=O)[C@H]1CC[C@@H]2O1 (some centres unmarked) [Compound T40] here?
Answer: 0%

Question: And the pest or weed control at 250 g/ha (Setaria faberi (SETFA) [2])?
Answer: 100%

Question: What about the pest or weed control at 250 g/ha [3] of the same compound?
Answer: 90%

Question: What about the pest or weed control at 250 g/ha [4] of the same compound?
Answer: 100%

Question: What about the pest or weed control at 250 g/ha (Avena fatua (AVEFA) [5]) of the same compound?
Answer: 40%

Question: What about the pest or weed control at 250 g/ha [6] of the same compound?
Answer: 0%

Question: What about the pest or weed control at 250 g/ha (Setaria faberi (SETFA) [7]) of the same compound?
Answer: 100%

Question: And the pest or weed control at 250 g/ha [8]?
Answer: 100%

Question: And the pest or weed control at 250 g/ha [9]?
Answer: 100%

Question: What about the pest or weed control at 250 g/ha (Avena fatua (AVEFA) [10]) of the same compound?
Answer: 70%

Question: What does the source list for Cc1ccc(-c2nc(C3C(=O)[C@@H]4[C@H](C3=O)[C@H]3CC[C@@H]4O3)c(C)s2)cc1 (some centres unmarked) [Compound T20]?
Answer: pest or weed control at 250 g/ha [1]: 0%; pest or weed control at 250 g/ha (Setaria faberi (SETFA) [2]): 80%; pest or weed control at 250 g/ha [3]: 50%; pest or weed control at 250 g/ha [4]: 70%; pest or weed control at 250 g/ha (Avena fatua (AVEFA) [5]): 60%; pest or weed control at 250 g/ha [6]: 0%; pest or weed control at 250 g/ha (Setaria faberi (SETFA) [7]): 100%; pest or weed control at 250 g/ha [8]: 90%; pest or weed control at 250 g/ha [9]: 100%; pest or weed control at 250 g/ha (Avena fatua (AVEFA) [10]): 100%
